Experimental data reported in patent publication US8148371B2, “Adenine compound and use thereof” (Dainippon Sumitomo Pharma Co., Ltd., priority 2002, dated 2012).
Read-outs that look alike come from different tables or passages of the source. Marks after values point to notes of the source that are not given here.

What was measured:
[1] = test system: cells of rat spleen; assay: cells; type: cell-based, SD rat; conditions: for minimal effective concentration: 24 h, read-out: Minimum effective concentration (interferon inducing activity)
[2] = test system: plasma esterase; conditions: rat plasma, 37° C., 15 minutes
Procedure: The compound of the present invention is added to the serum solution, and the mixture is incubated at 37±0.5° C. for 5 minutes to 2 hours. By quantitatively analyzing at the definite interval the amount of the compound of the present invention remaining in the serum solution with HPLC (high performance liquid chromatography), etc., the constant of quenching velocity calculated and the half life is calculated.
The serum herein means the supernatant fraction obtained by excluding hemocytes and blood coagulation factor from blood by centrifugation, etc. The serum diluted with buffer, etc. can be used.
The metabolic stability of the test compound was presented by the residual amount (%) per the concentration of pre-metabolization.

[3] = Metabolic stability on liver S9 of rat; conditions: 37° C.
Procedure: The compound of the present invention is added to liver S9 solution, and the mixture is incubated at 37±0.5° C. for 5 minutes to 2 hours. By quantitatively analyzing at the definite interval the amount of the compound of the present invention remaining in the liver S9 solution with HPLC (high performance liquid chromatography), etc., the constant of quenching velocity is calculated and the half life is calculated.
The reaction on river S9 of a rat was carried out on a 96-well plate by using a robot for screening by Tecan Company. S9 solution was prepared by adding to 10 ml of liver S9 of a rat, 20 ml of 250 mM Kpi (pH 7.4) and 20 ml of deionized water. Cofactor solution was prepared by dissolving NADPH (220 mg) in deionized water (40.5 ml) to give finally a 6 mM solution. IS (Internal Standard) solution was prepared by adding 300 μL of IS solution (1 mM DMSO solution) to 30 ml of acetonitrile solution (100 times dilution). The test compound (1 μM DMSO solution) was dissolved in an incubator at 37° C., 35 μL of it was poured into each well of a 96-well plate (24 samples/plate and then, plates (a sample plate, a 96 well-plate for dilution, deep well plates for reaction and recovering, a plate for extraction of the solid phase) and the test samples (S9 solution, Cofactor solution, IS (Internal Standard) solution, Stop solution, acetonitrile for elution) were set to the specified position in the booth of the robot. The reaction started (the concentration of the test compound was 1 μM) and the mixture was incubated at 37° C. under stirring. The solid phase was extracted and at the same time the internal standard for analysis was added. To the recovered sample (200 μL/well) was added 50 μL of acetonitrile per each well and to 2 plates of FALCON Deep well were poured 100 μL of the solution per well. By subjecting to the LC/MS analysis, the chromatogram of the test sample and the internal standard were described and the peak area was calculated. And then, the stability (residual rate after reaction) was calculated by the internal standard method.

[4] = rat liver S9, test compound 1 μM
[5] = rat liver S9, test compound 10 μM (*)

Row | SMILES | Residual rate ([2]; test compound 10 μM) [%] | Residual rate [3, 4] [%] | minimal effective concentration [1] [µM] | other results
1 | CCOC(=O)CCc1nc(N)c2nc(O)n(Cc3ccccc3)c2n1 [Example 62, 9-Benzyl-2-ethoxycarbonylethyl-8-hydroxy adenine] | – | – | – | Minimum effective concentration (interferon inducing activity) [1]: 30 nM; Residual rate ([2]; test compound 1 μM (*)): 0* %
2 | COC(=O)CNc1nc(N)c2nc(O)n(Cc3ccccc3)c2n1 [Example 31, 9-Benzyl-8-hydroxy-2-methoxycarbonylmethylaminoadenine] | 0 | 3 | – | –
3 | C=CCOC(=O)CSc1nc(N)c2nc(O)n(Cc3ccccc3)c2n1 [Example 44, 2-(Allyloxycarbonylmethyl)thio-9-benzyl-8-hydroxyadenine] | 0 | 0 | – | –
4 | CCOC(=O)CSc1nc(N)c2nc(O)n(Cc3ccccc3)c2n1 [Example 41, 9-Benzyl-2-(ethoxycarbonylmethyl)thio-8-hydroxyadenine] | 0 | – | – | Residual rate [3, 5]: 2* %
5 | CCCCOc1nc(N)c2nc(O)n(Cc3cccc(C(=O)OCc4cccnc4)c3)c2n1 [Example 9, 2-Butoxy-8-hydroxy-9-{3-(3-pyridylmethoxycarbonyl)benzyl}adenine] | 1 | – | – | –
6 | CCOC(=O)COc1nc(N)c2nc(O)n(Cc3ccccc3)c2n1 [Example 65, 9-Benzyl-2-ethoxycarbonylmethoxy-8-hydroxyadenine] | – | – | 0.03 | Residual rate ([2]; test compound 1 μM (*)): 0* %
7 | CCCCOc1nc(N)c2nc(O)n(Cc3cccc(C(=O)OCC(F)(F)F)c3)c2n1 [Example 4, 2-Butoxy-8-hydroxy-9-{3-(2,2,2-trifluorroethoxycarbonyl)benzyl}adenine] | 23 | 25 | – | –
8 | CCCCOc1nc(N)c2[nH]c(=O)n(Cc3ccc(C(=O)OC)cc3)c2n1 [Example 11, 2-Butoxy-8-hydroxy-9-(4-methoxycarbonylbenzyl)adenine] | 13 | – | – | –
9 | CC(C)OC(=O)Cc1nc(N)c2nc(O)n(Cc3ccccc3)c2n1 [Example 108, 9-Benzyl-8-hydroxy-2-(isopropoxycarbonylmethyl)adenine] | – | 3 | 0.03 | –
10 | CCCCOc1nc(N)c2nc(O)n(Cc3ccc(C(=O)OC(C)C)nc3)c2n1 [Example 18, 2-Butoxy-8-hydroxy-9-{(6-isopropoxycarbonyl-3-pyridyl)methyl}adenine] | 0 | – | – | –
11 | CCOC(=O)CCSc1nc(N)c2nc(O)n(Cc3ccccc3)c2n1 [Example 55, 9-Benzyl-2-(2-ethoxycarbonylethyl)thio-8-hydroxyadenine] | 0 | – | – | Residual rate [3, 5]: 4* %
12 | CCCCOc1nc(N)c2nc(O)n(Cc3cccc(C(=O)OCCN4CCOCC4)c3)c2n1 [Example 8, 2-Butoxy-8-hydroxy-9-{3-(2-morpholinoethoxycarbonyl)benzyl}adenine] | 16 | 1 | – | –
13 | Nc1nc(CC(=O)OCCF)nc2c1nc(O)n2Cc1ccccc1 [Example 109, 9-Benzyl-2-(2-fluoroethoxycarbonyl)methyl-8-hydroxyadenine] | – | 0 | 0.03 | –
14 | CSC(=O)CCc1nc(N)c2nc(O)n(Cc3ccccc3)c2n1 [Example 63] | – | 0 | – | Minimum effective concentration (interferon inducing activity) [1]: 100 nM
15 | CCCCOc1nc(N)c2nc(O)n(Cc3ccc(CN4CCOCC4)cc3)c2n1 [Example 79, 2-Butoxy-8-hydroxy-9-(4-morpholinomethylbenzyl)adenine] | – | 17 | 0.0003 | –
16 | CC(C)(C)OC(=O)CSc1nc(N)c2nc(O)n(Cc3ccccc3)c2n1 [Example 43, 9-Benzyl-2-(t-butoxycarbonylmethyl)thio-8-hydroxyadenine] | 0 | 2 | – | –

Row | SMILES | Residual rate ([2]; test compound 10 μM) [%] | Residual rate [3, 4] [%] | minimal effective concentration [1] [µM] | other results
17 | COCCOc1nc(N)c2[nH]c(=O)n(Cc3cccc(CC(=O)OC)c3)c2n1 [Example 96, 8-Hydroxy-9-(3-methoxycarbonylmethylbenzyl)-2-(2-methoxyethoxy)adenine] | – | 0 | 0.003 | –
18 | CCC(=O)OCCOc1nc(N)c2nc(O)n(Cc3ccc(C)nc3)c2n1 [Example 37, 8-Hydroxy-9-(6-methyl-3-pyridyl)methyl-2-{2-(propionyloxy)ethoxy}adenine] | 0 | – | – | –
19 | CCCCOc1nc(N)c2[nH]c(=O)n(Cc3cccc(CCC(=O)OC)c3)c2n1 [Example 84, 2-Butoxy-8-hydroxy-9-(3-methoxycarbonylethylbenzyl)adenine] | – | 1 | 0.01 | –
20 | COCCOC(=O)CSc1nc(N)c2nc(O)n(Cc3ccccc3)c2n1 [Example 49, 9-Benzyl-8-hydroxy-2-(2-methoxyethoxycarbonylmethyl)thioadenine] | 0 | 0 | – | –
21 | CCCCOc1nc(N)c2nc(O)n(Cc3ccc(C(C)C(=O)OC)cc3)c2n1 (stereo not drawn) [Example 100, 2-Butoxy-8-hydroxy-9-[4-(1-methoxycarbonylethyl)benzyl]adenine] | – | 1 | 0.0003 | –
22 | CCCCOc1nc(N)c2nc(O)n(Cc3ccc(C(=O)OC(C)C)cc3)c2n1 [Example 12, 2-Butoxy-8-hydroxy-9-(4-isopropoxycarbonylbenzyl)adenine] | 29 | – | – | –
23 | COC(=O)Cc1cccc(CSc2nc(N)c3nc(O)n(Cc4ccccc4)c3n2)c1 [Example 105, 9-Benzyl-8-hydroxy-2-[(3-methoxycarbonylmethylbenzyl)thio]adenine] | – | 1 | 0.3 | –
24 | COC(=O)CCc1nc(N)c2nc(O)n(Cc3ccc(CC(=O)OC)cc3)c2n1 [Example 67, 8-Hydroxy-2-(2-methoxycarbonylethyl)-9-(4-methoxycarbonylmethylbenzyl)adenine] | – | 0 | 0.001 | –
25 | CCCCOc1nc(N)c2nc(O)n(Cc3ccc(C(=O)OC)c(C(=O)OC)c3)c2n1 [Example 90, 2-Butoxy-9-(3,4-dimethoxycarbonylbenzyl)-8-hydroxyadenine] | – | 3 | 0.0003 | –
26 | CCCCOc1nc(N)c2nc(O)n(Cc3cccc(C(=O)OCCOCc4ccccc4)c3)c2n1 [Example 5, 2-Butoxy-8-hydroxy-9-{3-(2-benzyloxyethoxycarbonyl)benzyl}adenine] | 18 | – | – | –
27 | COC(=O)CCc1nc(N)c2nc(O)n(Cc3ccc(C)nc3)c2n1 [Example 66, 8-Hydroxy-2-methoxycarbonylethyl-9-{(6-methyl-3-pyridyl)methyl}adenine] | – | 0 | – | Minimum effective concentration (interferon inducing activity) [1]: 1 nM
28 | CCCCOc1nc(N)c2nc(O)n(Cc3ccc(C(=O)SC)nc3)c2n1 [Example 82, 2-Butoxy-8-hydroxy-9-{(6-S-methylthiocarbonyl-3-pyridyl)methyl}adenine] | – | 2 | – | Minimum effective concentration (interferon inducing activity) [1]: 100 nM
29 | CCCCOc1nc(N)c2nc(O)n(Cc3ccc(CC(=O)SCC)cc3)c2n1 [Example 75, 2-Butoxy-9-{4-(S-ethylthiocarbonyl)methylbenzyl}-8-hydroxyadenine] | – | – | 0.003 | Residual rate ([2]; test compound 1 μM (*)): 0* %
30 | CCCCOc1nc(N)c2nc(O)n(Cc3ccc(C(=O)OCc4cccnc4)cc3)c2n1 [Example 13, 2-Butoxy-8-hydroxy-9-{4-(3-pyridylmethoxycarbonyl)benzyl}adenine] | 10 | – | – | –
31 | CCCCNc1nc(N)c2nc(O)n(Cc3ccc(C(=O)OC)cc3)c2n1 [Example 27, 2-Butylamino-8-hydroxy-9-(4-methoxycarbonylbenzyl)adenine] | 0 | – | – | –
